# Values joined by “and” are separate entries in the source; they are usually repeats but may differ in a detail not shown here. Equal entries are not always repeated.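 Tested at 5 concentrations; 48 h exposure; 96-well plates; endpoints linearly interpolated, else capped at highest concentration. At the GI50, growth is halved. At the TGI there is no net growth.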 Where a SMILES comes first, the peptide text is derived from it. The star is where a group is joined. Cbz = O=C(OCc1ccccc1)*; CH2Cl = ClC*
# Tests used:
# Experiment in all cases: NCI anticancer screen, dose series, 48 h
# [1] = tested on: PC-3 prostate
# [2] = tested on: K-562 leukemia
# [3] = tested on: OVCAR-5 ovarian
# [4] = tested on: A549 NSCLC
# [5] = tested on: SW-620 colon
# [6] = tested on: UACC-62 melanoma
# [7] = tested on: SN12C renal
# [8] = tested on: M14 melanoma
# [9] = tested on: SK-MEL-28 melanoma
# [10] = tested on: SK-MEL-5 melanoma
Compound,GI50 [1] [µM],TGI [1] [µM],GI50 [2] [µM],TGI [2],GI50 [3] [µM],TGI [3] [µM],GI50 [4] [µM],TGI [4] [µM],GI50 [5] [µM],TGI [5],GI50 [6] [µM],TGI [6] [µM],GI50 [7] [µM],TGI [7],GI50 [8] [µM],TGI [8],GI50 [9] [µM],TGI [9] [µM],GI50 [10] [µM],TGI [10]
COc1ccc2c(c1)C(=O)c1c-2c(N2CCN(C(=O)CNCCNCCO)CC2)nc2ccccc12,5.57,18.7,2.85,11.9 µM,15.4,31,7.1,24.3,1.73,3.28 µM,2.82,8.64,3.91,13.3 µM,1.82,3.33 µM,2.02,3.54,13.3,27.5 µM
O=C1OCC2=C1C(c1cccc(Br)c1)c1cc3c(cc1N2CCO)CCC3 (stereo not drawn),0.0864,7.1,0.11,7.9 µM,0.322,10,0.133,5.54,0.0583,8.47 µM,0.0223,8.18,0.246,6.9 µM,0.078,5.78 µM,0.0564,10.3,0.0482,0.428 µM
COc1cc(Cn2c(-c3ccccc3)c(Cl)c3c2-c2oncc2CC3)cc(OC)c1,7.12,> 100,3.08,> 100 µM,47,> 100,8.57,> 100,3.7,19.2 µM,3.84,31.3,12.7,38.4 µM,4.22,18.1 µM,8.52,> 100,5.5,19.6 µM
CC(C)CC(NC(=O)OCc1ccccc1)C(=O)NC(Cc1ccccc1)C(=O)CCl (stereo not drawn) (Cbz-Leu-Phe-CH2Cl; configuration not given here),–,9.41,–,6.77 µM,–,15.3,–,39.4,–,3.94 µM,–,7.82,–,3.39 µM,–,3.45 µM,–,3.97,–,3.5 µM
COc1ccc(/C=C2/N=C(c3ccccc3)N(c3c(C)n(C)n(-c4ccccc4)c3=O)C2=O)cc1OC,> 100,> 100,> 100,> 100 µM,> 100,> 100,> 100,> 100,> 100,> 100 µM,> 100,> 100,> 100,> 100 µM,> 100,> 100 µM,> 100,> 100,51.7,> 100 µM
COc1cc2c(cc1OCCCNC(=O)c1cccc3c(=O)c4ccccc4[nH]c13)N=C[C@@H]1CCCN1C2=O,< 0.011,0.949,–,> 100 µM,< 0.01,30.6,0.0202,> 100,< 0.01,23.6 µM,< 0.01,< 0.01,< 0.01,< 0.0126 µM,< 0.01,< 0.01 µM,< 0.01,2.89,–,–
O=C(CSc1nc2ccccc2nc1-c1ccccc1)Nc1ccc(F)cc1,38.9,> 100,30.8,> 100 µM,> 100,> 100,49.3,> 100,61,> 100 µM,48.5,> 100,36.5,> 100 µM,> 100,> 100 µM,63.9,> 100,16.5,54.8 µM
COc1cc(F)ccc1-c1ncnc(Nc2cccc(CS(C)(=N)=O)c2)n1 (stereo not drawn),1.28,7.7,3.78,> 100 µM,0.827,> 100,2.83,> 100,0.673,> 100 µM,0.361,3.4,0.645,> 100 µM,2.25,> 100 µM,1.05,> 100,–,–
Cn1cc(C2=C(c3cn(CCCCO)c4ccccc34)C(=O)NC2=O)c2ccccc21,9.38,> 25,9.75,> 25 µM,13.5,> 25,7.97,> 25,9.26,> 25 µM,9.07,> 24.1,7.17,> 25 µM,16.6,> 25 µM,12.6,> 25,6.26,> 20.5 µM
Cn1cc(NC(=O)Nc2cc(C(=O)Nc3cc(C(=O)Nc4ccc(S(=O)(=O)O)c5cc(S(=O)(=O)O)ccc45)n(C)c3)n(C)c2)cc1C(=O)Nc1cc(C(=O)Nc2ccc(S(=O)(=O)O)c3cc(S(=O)(=O)O)ccc23)n(C)c1,–,> 100,–,> 100 µM,–,> 100,–,> 100,–,> 100 µM,–,> 100,–,> 100 µM,–,> 100 µM,–,> 100,–,> 100 µM
O=C(c1ccccc1Br)C(F)(F)F,–,> 100,–,> 100 µM,–,> 100,–,> 100,–,> 100 µM,–,> 100,–,> 100 µM,–,> 100 µM,–,> 100,–,> 100 µM
CCCN1C(=O)N(CCC)C2C1NC(=S)N2/N=C/C=C/c1ccccc1OC (stereo not drawn),0.424,> 100,0.41,> 100 µM,3.61,> 100,0.868,> 100,0.416,> 100 µM,0.599,47,1.84,33.3 µM,0.455,> 100 µM,6.26,> 100,0.516,15.9 µM
C=C(Cl)C(Br)(CCl)CCC(Br)C(C)(C)Cl (stereo not drawn),–,14.2,7.84,9.43 µM and 40.4 µM,–,19.4,–,38.1,1.46,4.54 µM and 3.23 µM,2.17,6.83,1.89,7.06 µM and 3.6 µM,2.01,7.74 µM and 4.9 µM,5.88,14.2,–,6.96 µM and 6.1 µM
Clc1ccc2[nH]cc(-c3nnnn3-c3ccccc3)c2c1,18.6,> 59.5,8.58,> 67.3 µM,21.8,> 89.8,20.8,> 100,14.9,> 100 µM,11.2,> 100,32.8,> 100 µM,9.74,41.8 µM,14.3,> 100,9.97,28.8 µM
CCOC(=O)C(Cc1ccc(CCCC(=O)NCCC(=O)Nc2ccc3nc(C)sc3c2)cc1)C(=O)OCC,24.3,> 70.7,47.3,> 100 µM,> 100,> 100,59.1,> 100,> 93.2,> 100 µM,26.2,> 69.5,31.4,> 100 µM,29.3,> 93.8 µM,28.7,> 96.7,15.4,29.2 µM
CO/N=C(\COc1ccc2c(c1)oc(=O)c1cc(OC)ccc12)c1ccc(OC)cc1,> 100,> 100,> 100,> 100 µM,> 100,> 100,> 100,> 100,> 100,> 100 µM,> 100,> 100,> 100,> 100 µM,> 100,> 100 µM,> 100,> 100,> 100,> 100 µM
O=C(O)Cc1cc(Cl)ccc1O,–,> 100,–,> 100 µM,–,> 100,–,> 100,–,> 100 µM,–,> 100,–,> 100 µM,–,> 100 µM,–,> 100,–,> 100 µM
CC[C@H]1[C@@H]2C=C[C@@H]3[C@H]4C/C=C\C(=O)NCCC[C@@H]5NC(=O)/C(=C(O)/C=C/[C@@H]4C[C@@H]3[C@H]2C[C@H]1C)C5=O,0.865,2.3,1.96,4.24 µM,1.66,3.5,2,3.99,2.46,7.59 µM,1.66,3.17,0.569,1.99 µM,1.58,3.08 µM,1.89,4.06,0.9,2.2 µM
CCOC(=O)Nc1ccc(C)c(NC(=O)OCC)c1,–,> 100,–,> 100 µM,–,> 100,–,> 100,–,> 100 µM,–,> 100,–,> 100 µM,–,> 100 µM,–,> 100,–,> 100 µM
Cc1c2c(C#N)nccc2c(C)c2c1c1ccccc1n2Cc1ccccc1,–,> 100,–,> 100 µM,–,> 100,–,> 100,–,> 100 µM,–,> 100,–,> 100 µM,–,> 100 µM,–,> 100,–,> 100 µM
COc1cc(NS(C)(=O)=O)ccc1Nc1c2ccccc2nc2c1[nH]c1ccc(NC3OC(CO)C(O)C(O)C3O)cc12 (stereo not drawn),–,3.6,–,20.3 µM,–,2.09,–,0.235,–,2.08 µM,–,1.08,–,0.387 µM,–,0.971 µM,–,1.96,–,1.31 µM
COc1c(OC[C@H](O)CN2CCOCC2)ccc2c3n(c(=NC(=O)c4cccnc4C)nc12)CCN3,0.326,> 50,> 50,> 50 µM,0.171,> 50,0.826,> 50,49.4,> 50 µM,0.33,> 50,1.72,> 50 µM,27.8,> 50 µM,0.465,> 50,> 50,> 50 µM
COc1cccc2c1C(=O)c1c(O)c3c(c(O)c1C2=O)C[C@](O)(C(=O)CO)C[C@H]3O[C@@H]1C[C@@H](NC(=O)CCCCCN(C)C2(c3ccc(F)cc3)CC3CCC2C3)[C@H](O)[C@@H](C)O1 (stereo partly drawn),0.994,2.06,1.11,2.47 µM,0.988,2.19,–,–,0.76,1.85 µM,6.56,15.7,5.75,14.5 µM,3.48,14.3 µM,7.25,15.7,7.65,15.6 µM
CC(=O)OC12C=CC(=O)N1c1ccccc1C(=O)O2 (stereo not drawn),> 100,> 100,–,> 100 µM,–,> 100,–,> 100,–,> 100 µM,–,> 100,–,> 100 µM,–,> 100 µM,–,> 100,–,> 100 µM
CCSc1ncnc2c1ncn2C1OC(CO)C(O)C1O (stereo not drawn),0.692,> 71.3,3.06,> 100 µM,0.65,> 100,0.777,> 60.2,0.3,> 100 µM,1.48,> 100,0.449,> 100 µM,0.589,> 100 µM,> 48.3,> 100,2.83,> 100 µM
CCCC(=O)Nc1cc2c3c(c1)CCCN3CCC2,–,> 10,–,> 10 µM,–,> 10,–,> 10,–,> 10 µM,–,> 10,–,> 10 µM,–,> 10 µM,–,> 10,–,> 10 µM
NCCNc1c2c(c(NCCN)c3[nH]ccc13)C(=O)c1ccccc1C2=O,0.631,2.45,0.118,1.14 µM,0.279,0.96,0.63,2.53,0.216,1.09 µM,0.0842,0.372,0.0978,0.994 µM,1.45,2.76 µM,0.439,1.8,0.178,0.808 µM
COc1ccc2[nH]cc(C3(c4c[nH]c5ccc(OC)cc45)C(=O)Nc4ccc(F)cc43)c2c1,3.13,16.5,2.24,5.78 µM,2.61,8.93,–,–,3.04,11.5 µM,1.98,6.1,2.97,12.1 µM,2.41,6.77 µM,2.29,6.75,1.98,4.77 µM

# Reference: PubChem BioAssay (NCI)
